From patent publication US10899709B2, “Novel-alkynyl-substituted 3-phenylpyrrolidine-2,4-diones and use thereof as herbicides” (BAYER CROPSCIENCE AKTIENGESELLSCHAFT, priority 2015, dated 2021)

Legend:
Type in all cases: in vivo
Alopecurus myosuroides [1] = experiment: Post-emergence herbicidal effect; conditions: visual assessment after about 3 weeks
Method: (§1) Seeds of monocotyledonous and dicotyledonous weed and crop plants are laid out in sandy loam in wood-fibre pots, covered with soil and cultivated in a greenhouse under good growth conditions. 2 to 3 weeks after sowing, the test plants are treated at the one-leaf stage. The compounds according to the invention, formulated in the form of wettable powders (WP) or as emulsion concentrates (EC), are then sprayed as aqueous suspension or emulsion at a water application rate of 600 to 800 l/ha (converted) with the addition of 0.2% of wetting agent onto the green parts of the plants. After the test plants have been left to stand in the greenhouse under optimal growth conditions for about 3 weeks, the action of the preparations is assessed visually in comparison to untreated controls (herbicidal action in percent (%): 100% activity=the plants have died, 0% activity=like control plants).

Setaria viridis [2] = experiment: Post-emergence herbicidal effect; conditions: visual assessment after about 3 weeks
Method: as §1

Echinochloa crus-galli [3] = experiment: Post-emergence herbicidal effect; conditions: visual assessment after about 3 weeks
Method: as §1

Lolium multiflorum [4] = experiment: Post-emergence herbicidal effect; conditions: visual assessment after about 3 weeks
Method: as §1

Alopecurus myosuroides [5] = experiment: Pre-emergence herbicidal effect; conditions: visual score after 3 weeks
Excerpt: (§2) Seeds of monocotyledonous and dicotyledonous weed plants and crop plants are laid out in wood-fibre pots in sandy loam and covered with soil. The compounds according to the invention formulated in the form of wettable powders (WP) or as emulsion concentrates (EC) are then applied as aqueous suspension or emulsion at a water application rate of 600 to 800 l/ha (converted) with the addition of 0.2% wetting agent to the surface of the covering soil. After the treatment, the pots are placed in a greenhouse and kept under good growth conditions for the trial plants. The damage to the test plants is scored visually after a test period of 3 weeks by comparison with untreated controls (herbicidal activity in percent (%): 100% activity=the plants have died, 0% activity=like control plants).

Setaria viridis [6] = experiment: Pre-emergence herbicidal effect; conditions: visual score after 3 weeks
Excerpt: as §2

Avena fatua [7] = experiment: Pre-emergence herbicidal effect; conditions: visual score after 3 weeks
Excerpt: as §2

Echinochloa crus-galli [8] = experiment: Pre-emergence herbicidal effect; conditions: visual score after 3 weeks
Excerpt: as §2

Lolium multiflorum [9] = experiment: Pre-emergence herbicidal effect; conditions: visual score after 3 weeks
Excerpt: as §2

Avena fatua [10] = experiment: Post-emergence herbicidal effect; conditions: visual assessment after about 3 weeks
Method: as §1

| Compound | Post-emergence effectiveness ALOMY (Alopecurus myosuroides [1]; 80 g/ha) [%] | Post-emergence effectiveness SETVI (Setaria viridis [2]; 20 g/ha) [%] | Post-emergence effectiveness SETVI (Setaria viridis [2]; 80 g/ha) [%] | Post-emergence effectiveness ECHCG (Echinochloa crus-galli [3]; 20 g/ha) [%] | Post-emergence effectiveness ECHCG (Echinochloa crus-galli [3]; 80 g/ha) [%] | Post-emergence effectiveness LOLMU (Lolium multiflorum [4]; 20 g/ha) [%] | Post-emergence effectiveness LOLMU (Lolium multiflorum [4]; 80 g/ha) [%] | Pre-emergence effectiveness ALOMY (Alopecurus myosuroides [5]; 320 g/ha) [%] | Pre-emergence effectiveness SETVI (Setaria viridis [6]; 80 g/ha) [%] | Pre-emergence effectiveness SETVI (Setaria viridis [6]; 320 g/ha) [%] | Pre-emergence effectiveness AVEFA (Avena fatua [7]; 320 g/ha) [%] | Pre-emergence effectiveness ECHCG (Echinochloa crus-galli [8]; 80 g/ha) [%] | Pre-emergence effectiveness ECHCG (Echinochloa crus-galli [8]; 320 g/ha) [%] | Pre-emergence effectiveness LOLMU (Lolium multiflorum [9]; 320 g/ha) [%] | Post-emergence effectiveness AVEFA (Avena fatua [10]; 80 g/ha) [%] | Pre-emergence effectiveness ALOMY (Alopecurus myosuroides [5]; 80 g/ha) [%] | Pre-emergence effectiveness LOLMU (Lolium multiflorum [9]; 80 g/ha) [%] | Post-emergence effectiveness ALOMY (Alopecurus myosuroides [1]; 20 g/ha) [%] | Post-emergence effectiveness AVEFA (Avena fatua [10]; 20 g/ha) [%] | Pre-emergence effectiveness AVEFA (Avena fatua [7]; 80 g/ha) [%] |
| --- | --- | --- | --- | --- | --- | --- | --- | --- | --- | --- | --- | --- | --- | --- | --- | --- | --- | --- | --- | --- |
| COCC1CCC2(C1)NC(=O)C(c1c(C)cc(C#CC3CC3)cc1C)=C2O (mixture of isomers) [Example I-14] | 80 | 90 | 90 | 90 | 100 | 90 | 90 | 100 | 90 | 90 | 80 | 100 | 100 | 100 |  |  |  |  |  |  |
| CC#Cc1cc(CC)c(C2=C(O)C3(CCC(CCOC)CC3)NC2=O)c(CC)c1 (stereo not shown) [Example I-1] | 90 | 90 | 100 | 100 | 100 | 90 | 90 | 100 | 100 | 100 | 80 | 100 | 100 | 100 | 90 | 80 | 100 |  |  |  |
| CC#Cc1cc(C)c(C2=C(O)C3(CCC(COC)C3)NC2=O)c(CC)c1 (stereo not shown) [Example I-9] | 100 | 100 | 100 | 100 | 100 | 100 | 100 | 100 | 90 | 100 | 90 | 100 | 100 | 100 | 100 | 100 | 80 | 100 | 90 |  |
| CC#Cc1cc(C)c(C2=C(O)C3(CCC(COC)C3)NC2=O)c(CC)c1 (stereo not shown) [Example I-10] | 100 | 90 | 100 | 100 | 100 | 100 | 100 | 100 | 80 | 100 | 100 | 100 | 100 | 100 | 100 | 90 | 100 | 100 | 100 | 80 |
| COCC1CCC2(C1)NC(=O)C(c1c(C)cc(C#CC3CC3)cc1C)=C2O (stereo not shown) [Example I-13] | 80 | 90 | 90 | 90 | 90 |  | 90 | 100 | 90 | 100 |  | 100 | 100 | 90 |  |  |  |  |  |  |
